Paper PMC9866191, “Novel 9-Benzylaminoacridine Derivatives as Dual Inhibitors of Phosphodiesterase 5 and Topoisomerase II for the Treatment of Colon Cancer” (Molecules, 2023)

Legend:
LOX IMVI = experiment: NCI-60 one-dose screen; assay type: cell-based; conditions: Homo sapiens, Melanoma panel, single dose 10^−5 M, read-out: Growth inhibition %
PDE5A = target: T1, PDE5A (Homo sapiens, UniProt O76074); experiment: Phosphodiesterase 5 HTRF cGMP assay; assay type: biochemical; conditions: for IC50: means ± S.D. (n = 4), read-out: PDE5 IC50; for inhibition at 10 µM: read-out: PDE5 % Inhibition at 10 μM
T1 construct: purchased BPS Bioscience, San Diego, CA, USA
Method: All the synthesized acridine derivatives were tested for their in vitro ability to inhibit PDE5A at a screening dose of 10 µM.
The enzyme activities of phosphodiesterase 5 (PDE5) were measured using an HTRF cGMP assay kit (Cisbio, Codolet, France). […] Afterward, the HTRF reagent (cGMP-d2 and anti-cGMP-cryptate) was added for 1 h at 25 °C, and PDE activity was assayed on an HTRF reader (Tecan Infinite F200 Pro).

SN12C = experiment: NCI-60 one-dose screen; assay type: cell-based; conditions: Homo sapiens, Renal Cancer panel, single dose 10^−5 M, read-out: Growth inhibition %
K-562 = experiment: NCI-60 one-dose screen; assay type: cell-based; conditions: Homo sapiens, K562; K-562, Leukemia panel; single dose 10^−5 M; read-out: Growth inhibition %
RXF 393 = experiment: NCI-60 one-dose screen; assay type: cell-based; conditions: Homo sapiens; RXF 393, Renal Cancer panel; single dose 10^−5 M; read-out: Growth inhibition %
UO-31 = experiment: NCI-60 one-dose screen; assay type: cell-based; conditions: Homo sapiens; UO-31, Renal Cancer panel; single dose 10^−5 M; read-out: Growth inhibition %
COLO 205 = experiment: NCI-60 one-dose screen; assay type: cell-based; conditions: Homo sapiens; COLO 205, Colon Cancer panel; single dose 10^−5 M; read-out: Growth inhibition %
TK-10 = experiment: NCI-60 one-dose screen; assay type: cell-based; conditions: Homo sapiens; TK-10, Renal Cancer panel; single dose 10^−5 M; read-out: Growth inhibition %
OVCAR-3 = experiment: NCI-60 one-dose screen; assay type: cell-based; conditions: Homo sapiens; OVCAR-3, Ovarian Cancer panel; single dose 10^−5 M; read-out: Growth inhibition %
NCI-H322M = experiment: NCI-60 one-dose screen; assay type: cell-based; conditions: Homo sapiens, Non-small cell lung panel, single dose 10^−5 M, read-out: Growth inhibition %
SK-MEL-2 = experiment: NCI-60 one-dose screen; assay type: cell-based; conditions: Homo sapiens; SK-MEL-2, Melanoma panel; single dose 10^−5 M; read-out: Growth inhibition %
KM12 = experiment: NCI-60 one-dose screen; assay type: cell-based; conditions: Homo sapiens; KM12, Colon Cancer panel; single dose 10^−5 M; read-out: Growth inhibition %
SF-539 = experiment: NCI-60 one-dose screen; assay type: cell-based; conditions: Homo sapiens; SF-539, CNS Cancer panel; single dose 10^−5 M; read-out: Growth inhibition %
HOP-62 = experiment: NCI-60 one-dose screen; assay type: cell-based; conditions: Homo sapiens; HOP-62, Non-small cell lung panel; single dose 10^−5 M; read-out: Growth inhibition %
MALME-3M = experiment: NCI-60 one-dose screen; assay type: cell-based; conditions: Homo sapiens, Melanoma panel, single dose 10^−5 M, read-out: Growth inhibition %
U251 = experiment: NCI-60 one-dose screen; assay type: cell-based; conditions: Homo sapiens, U-251; U251, CNS Cancer panel; single dose 10^−5 M; read-out: Growth inhibition %
SW-620 = experiment: NCI-60 one-dose screen; assay type: cell-based; conditions: Homo sapiens; SW-620, Colon Cancer panel; single dose 10^−5 M; read-out: Growth inhibition %
UACC-62 = experiment: NCI-60 one-dose screen; assay type: cell-based; conditions: Homo sapiens; UACC-62, Melanoma panel; single dose 10^−5 M; read-out: Growth inhibition %
HCT-116 = experiment: NCI-60 one-dose screen; assay type: cell-based; conditions: Homo sapiens, read-out: Growth inhibition %
RPMI-8226 = experiment: NCI-60 one-dose screen; assay type: cell-based; conditions: Homo sapiens; RPMI-8226, Leukemia panel; single dose 10^−5 M; read-out: Growth inhibition %
A549/ATCC = experiment: NCI-60 one-dose screen; assay type: cell-based; conditions: Homo sapiens, Non-small cell lung panel, single dose 10^−5 M, read-out: Growth inhibition %
MDA-MB-468 = experiment: NCI-60 one-dose screen; assay type: cell-based; conditions: Homo sapiens; MDA-MB-468, Breast Cancer panel; single dose 10^−5 M; read-out: Growth inhibition %
NCI-H226 = experiment: NCI-60 one-dose screen; assay type: cell-based; conditions: Homo sapiens; NCI-H226, Non-small cell lung panel; single dose 10^−5 M; read-out: Growth inhibition %
UACC-257 = experiment: NCI-60 one-dose screen; assay type: cell-based; conditions: Homo sapiens; UACC-257, Melanoma panel; single dose 10^−5 M; read-out: Growth inhibition %
HS 578T = experiment: NCI-60 one-dose screen; assay type: cell-based; conditions: Homo sapiens, Breast Cancer panel, single dose 10^−5 M, read-out: Growth inhibition %
HCC-2998 = experiment: NCI-60 one-dose screen; assay type: cell-based; conditions: Homo sapiens; HCC-2998, Colon Cancer panel; single dose 10^−5 M; read-out: Growth inhibition %
MDA-MB-231/ATCC = experiment: NCI-60 one-dose screen; assay type: cell-based; conditions: Homo sapiens, Breast Cancer panel, single dose 10^−5 M, read-out: Growth inhibition %
SNB-19 = experiment: NCI-60 one-dose screen; assay type: cell-based; conditions: Homo sapiens; SNB-19, CNS Cancer panel; single dose 10^−5 M; read-out: Growth inhibition %
OVCAR-8 = experiment: NCI-60 one-dose screen; assay type: cell-based; conditions: Homo sapiens; OVCAR-8, Ovarian Cancer panel; single dose 10^−5 M; read-out: Growth inhibition %
CCD-966SK = experiment: MTT cell proliferation assay, CCD-966SK; conditions: CCD966SK skin fibroblast; 10 µM; 72 h MTT

SMILES	inhibition at 10 µM (LOX IMVI)	IC50 (PDE5A)	inhibition at 10 µM (PDE5A)	inhibition at 10 µM (SN12C)	inhibition at 10 µM (K-562)	inhibition at 10 µM (RXF 393)	inhibition at 10 µM (UO-31)	inhibition at 10 µM (COLO 205)	inhibition at 10 µM (TK-10)	inhibition at 10 µM (OVCAR-3)	inhibition at 10 µM (NCI-H322M)	inhibition at 10 µM (SK-MEL-2)	inhibition at 10 µM (KM12)	inhibition at 10 µM (SF-539)	inhibition at 10 µM (HOP-62)	inhibition at 10 µM (MALME-3M)	inhibition at 10 µM (U251)	inhibition at 10 µM (SW-620)	inhibition at 10 µM (UACC-62)	inhibition at 10 µM (HCT-116)	also measured
Fc1cccc(CNc2c3ccccc3nc3ccccc23)c1F [Compound 20, Acridin-9-yl-(2,3-difluorobenzyl)-amine]	60.8%	7.25 ± 2.21 µM	57.9 ± 6.04%	51%	56.6%	40.5%	60%	59.1%	10.8%	13.9%	36.6%	-6.76%	13.1%	44.5%	27.3%	5.87%	34.5%	58.6%	24.3%	82.5%	inhibition at 10 µM (RPMI-8226): 47.1%; inhibition at 10 µM (A549/ATCC): 43.3%; inhibition at 10 µM (MDA-MB-468): 78%; inhibition at 10 µM (NCI-H226): 27.1%; inhibition at 10 µM (UACC-257): 7.14%; inhibition at 10 µM (HS 578T): 13%; inhibition at 10 µM (HCC-2998): 41.6%; inhibition at 10 µM (MDA-MB-231/ATCC): 41.8%; inhibition at 10 µM (SNB-19): 41.5%; inhibition at 10 µM (OVCAR-8): 49.2%; % Inhibition at 10 µM (CCD-966SK): 40.30 ± 3.56%
Fc1ccc(CNc2c3ccccc3nc3ccccc23)c(F)c1 [Compound 21, Acridin-9-yl-(2,4-difluorobenzyl)-amine]	78.5%	> 10 µM	31.9 ± 8.01%	62.8%	77.5%	65.5%	69.7%	73.2%	39%	29.8%	50.8%	0.35%	40%	67.6%	42.8%	30.5%	55.9%	70.2%	40.9%	85.8%	inhibition at 10 µM (RPMI-8226): 71.7%; inhibition at 10 µM (A549/ATCC): 59.9%; inhibition at 10 µM (MDA-MB-468): 104%; inhibition at 10 µM (NCI-H226): 45.2%; inhibition at 10 µM (UACC-257): 31.1%; inhibition at 10 µM (HS 578T): 24.6%; inhibition at 10 µM (HCC-2998): 58.7%; inhibition at 10 µM (MDA-MB-231/ATCC): 55.6%; inhibition at 10 µM (SNB-19): 58.5%; inhibition at 10 µM (OVCAR-8): 59.8%; % Inhibition at 10 µM (CCD-966SK): 30.94 ± 0.86%
Fc1ccc(CNc2c3ccccc3nc3ccccc23)cc1F [Compound 22, Acridin-9-yl-(3,4-difluorobenzyl)-amine]	87.5%	> 10 µM	36.2 ± 9.78%	70.3%	87.7%	92.6%	84.5%	83.9%	48.9%	31.1%	61%	10.6%	46.7%	77.9%	48.7%	49.3%	69.7%	76.3%	40%	91.8%	inhibition at 10 µM (RPMI-8226): 73.1%; inhibition at 10 µM (A549/ATCC): 70.9%; inhibition at 10 µM (MDA-MB-468): 111%; inhibition at 10 µM (NCI-H226): 52.4%; inhibition at 10 µM (UACC-257): 34.9%; inhibition at 10 µM (HS 578T): 35.2%; inhibition at 10 µM (HCC-2998): 97.8%; inhibition at 10 µM (MDA-MB-231/ATCC): 65.2%; inhibition at 10 µM (SNB-19): 67.1%; inhibition at 10 µM (OVCAR-8): 67.9%; % Inhibition at 10 µM (CCD-966SK): 37.49 ± 7.38%
c1ccc(CCNc2c3ccccc3nc3ccccc23)cc1 [Compound 23, Acridin-9-yl-phenethyl-amine]	82.4%	6.68 ± 1.1 µM	57.3 ± 3.58%	66.9%	75%	64.7%	75.8%	78.8%	46.8%	29%	53.4%	13.7%	42.6%	71.9%	44.9%	42.9%	58.9%	71.7%	46.8%	83.5%	inhibition at 10 µM (RPMI-8226): 80.5%; inhibition at 10 µM (A549/ATCC): 67.3%; inhibition at 10 µM (MDA-MB-468): 111%; inhibition at 10 µM (NCI-H226): 43.7%; inhibition at 10 µM (UACC-257): 44.8%; inhibition at 10 µM (HS 578T): 26.7%; inhibition at 10 µM (HCC-2998): 58.6%; inhibition at 10 µM (MDA-MB-231/ATCC): 56.7%; inhibition at 10 µM (SNB-19): 60.5%; inhibition at 10 µM (OVCAR-8): 61.7%; % Inhibition at 10 µM (CCD-966SK): 11.36 ± 7.38%
c1csc(-c2ccc(CNc3c4ccccc4nc4ccccc34)cc2)c1 [Compound 24, Acridin-9-yl-(4-thiophen-2-yl-benzyl)-amine]	191%	> 10 µM	42.9 ± 5.35%	36.8%	140%	114%	72%	94.9%	34.9%	90.5%	49.4%	19.2%	73.7%	87.5%	45.4%	182%	173%	172%	35.5%	183%	inhibition at 10 µM (RPMI-8226): 144%; inhibition at 10 µM (A549/ATCC): 73.3%; inhibition at 10 µM (MDA-MB-468): 173%; inhibition at 10 µM (NCI-H226): 31%; inhibition at 10 µM (UACC-257): 137%; inhibition at 10 µM (HS 578T): 39.4%; inhibition at 10 µM (HCC-2998): 187%; inhibition at 10 µM (MDA-MB-231/ATCC): 61.7%; inhibition at 10 µM (SNB-19): 53.8%; inhibition at 10 µM (OVCAR-8): 44.4%; % Inhibition at 10 µM (CCD-966SK): 47.41 ± 2.48%
